Results taken from ChEMBL document CHEMBL1275430, “Impact of mycophenolic acid on the functionality of human polymorphonuclear neutrophils and dendritic cells during interaction with Aspergillus fumigatus” (2008).

Tests used:
Assay type in all cases: functional
Aspergillus fumigatus [1] = test: Effect on polymorphonuclear neutrophil killing of Aspergillus fumigatus assessed as survival rate of fungi (reference value: 53% +/- 11%)
[2] = Induction of TNF-alpha expression in […] dendritic cell co-cultured with Aspergillus fumigatus germ tube at 10 uM after 7 days by RT-PCR
[3] = Induction of oxidative burst of polymorphonuclear neutrophil co-cultured with Aspergillus fumigatus germlings at 10 uM after 60 minutes relative to untreated control
Aspergillus fumigatus [4] = test: Effect on polymorphonuclear neutrophil killing of Aspergillus fumigatus assessed as survival rate of fungi at 10 ug/ml (reference value: 53% +/- 11%)
[5] = Inhibition of Aspergillus fumigatus-mediated dendritic cell maturation assessed as decreased CD40 expression at 10 uM
[6] = Inhibition of Aspergillus fumigatus-mediated dendritic cell maturation assessed as decreased CD83 expression at 10 uM
[7] = Inhibition of Aspergillus fumigatus-mediated dendritic cell maturation assessed as decreased CD86 expression at 10 uM
[8] = Induction of IL-2 expression in […] dendritic cell co-cultured with Aspergillus fumigatus germ tube at 10 uM after 7 days by RT-PCR
[9] = Induction of oxidative burst of polymorphonuclear neutrophil co-cultured with Aspergillus fumigatus germlings at 10 uM after 120 minutes relative to untreated control
[10] = Inhibition of Aspergillus fumigatus-mediated dendritic cell maturation assessed as decreased CD1a expression at 10 uM
[11] = Inhibition of Aspergillus fumigatus-mediated dendritic cell maturation assessed as decreased CD80 expression at 10 uM

Structure (SMILES)	Survival (Aspergillus fumigatus [1]) [%]	Activity [2] [%]	fold change (FC) [3]	survival at 10 µg/mL (Aspergillus fumigatus [4]) [%]	inhibition at 10 µM [5] [%]	inhibition at 10 µM [6] [%]	inhibition at 10 µM [7] [%]	Activity [8] [%]	fold change (FC) [9]	inhibition at 10 µM [10] [%]	inhibition at 10 µM [11] [%]
CCCCCCCCCCCCCC(=O)O[C@@H]1[C@@H](C)[C@@]2(O)[C@@H](C=C(CO)C[C@]3(O)C(=O)C(C)=C[C@@H]23)[C@@H]2C(C)(C)[C@]12OC(C)=O [PHORBOL MYRISTATE ACETATE]	26	–	–	–	–	–	–	–	–	–	–
COc1c(C)c2c(c(O)c1C/C=C(\C)CCC(=O)O)C(=O)OC2 [MYCOPHENOLIC ACID]	–	52	3.8	57	39.3	21.1	43.8	94	2.8	68.8	46.7
